US6218379A, “Tricyclic carbacephems” (Hoffmann-la Roche Inc., priority 1996, dated 2001)
Values after ≈ are worked out from the molar mass of the structure shown. Structures can show the parent of a compound that is named as a salt.

How the values were obtained:
[1] = system: Citrobacter freundii 1982; assay: Antibacterial activity in vitro (MIC) against Citrobacter freundii 1982; type: cell-based; details: read-out: MIC C. freundii 1982
Procedure: (§1) The minimum inhibitory concentration in vitro (MIC in μg/ml) of a compound of formula I against Citrobacter freundii 1982 and Staphylococcus aureus 887 is measured and compiled in Table 2.

[2] = system: Staphylococcus aureus 887; assay: Antibacterial activity in vitro (MIC) against Staphylococcus aureus 887; type: cell-based; details: read-out: MIC S. aureus 887
Procedure: as §1

Compound	MIC [1]	MIC [2]
O=C(O)C1=C(/C=C2\CCN(CC(F)(F)F)C2=O)C[C@@H]2CN[C@@H]3C(=O)N1[C@H]23 [Example 14, (E)-(1aS,3aR,6bR)-1-Oxo-5-[2-oxo-1-(2,2,2-trifluoro-ethyl)-pyrrolidin-3-ylidenemethyl]-1a,2,3,3a,4,6b-hexahydro-1H-2,6a-diaza-cyclobut[cd]indene-6-carboxylic acid trifluoroacetate (1:1)]	8 µg/mL	16 µg/mL
O=C(O)C1=C(/C=C2\CCN(Cc3ccc([N+](=O)[O-])cc3)C2=O)C[C@@H]2CN[C@@H]3C(=O)N1[C@H]23 [Example 15, (E)-(1aS,3aR,6bR)-1-Oxo-5-[2-oxo-1-(4-nitrobenzyl)-pyrrolidin-3-ylidenemethyl]-1a,2,3,3a,4,6b-hexahydro-1H-2,6a-diaza-cyclobut[cd]indene-6-carboxylic acid trifluoroacetate (1:0.77)]	32 µg/mL	8 µg/mL
O=C(O)C1=C(/C=C2\CCN(Cc3cccs3)C2=O)C[C@@H]2CN[C@@H]3C(=O)N1[C@H]23 [Example 16, (E)-(1aS,3aR,6bR)-1-Oxo-5-[2-oxo-1-(thiophen-2-ylmethyl)-pyrrolidin-3-ylidenemethyl]-1a,2,3,3a,4,6b-hexahydro-1H-2,6a-diaza-cyclobut[cd]indene-6-carboxylic acid trifluoroacetate (1:0.75)]	16 µg/mL	8 µg/mL
NC(=O)c1ccc(NC(=O)N2C[C@H]3CC(/C=C4\CCN(CC(F)(F)F)C4=O)=C(C(=O)O)N4C(=O)[C@@H]2[C@@H]34)cc1 [Example 23, (E)-(1aS,3aR,6bR)-2-(4-Carbamoyl-phenylcarbamoyl)-1-oxo-5-[2-oxo-1-(2,2,2-trifluoroethyl)-pyrrolidin-3-ylidenemethyl]-1a,2,3,3a,4,6b-hexahydro-1H-2,6a-diaza-cyclobut[cd]indene-6-carboxylic acid sodium salt (1:1)]	16 µg/mL	16 µg/mL
CC(=O)N1C[C@H]2CC(/C=C3\CCN(c4ccc(O)cc4)C3=O)=C(C(=O)O)N3C(=O)[C@@H]1[C@@H]23 [Example 24, (E)-(1aS,3aR,6bR)-2-Acetyl-1-oxo-5-[2-oxo-1-(4-hydroxyphenyl)-pyrrolidin-3-ylidenemethyl]-1a,2,3,3a,4,6b-hexahydro-1H-2,6a-diaza-cyclobut[cd]indene-6-carboxylic acid sodium salt (1:1)]	1 µg/mL	1 µg/mL
CC(=O)N1C[C@H]2CC(/C=C3\CCN(CC(F)(F)F)C3=O)=C(C(=O)O)N3C(=O)[C@@H]1[C@@H]23 [Example 25, (E)-(1aS,3aR,6bR)-2-Acetyl-1-oxo-5-[2-oxo-1-(2,2,2-trifluoroethyl)-pyrrolidin-3-ylidenemethyl]-1a,2,3,3a,4,6b-hexahydro-1H-2,6a-diaza-cyclobut[cd]indene-6-carboxylic acid sodium salt (1:1)]	1 µg/mL	4 µg/mL
CC(=O)N1C[C@H]2CC(/C=C3\CCN(Cc4ccc([N+](=O)[O-])cc4)C3=O)=C(C(=O)O)N3C(=O)[C@@H]1[C@@H]23 [Example 26, (E)-(1aS,3aR,6bR)-2-Acetyl-1-oxo-5-[2-oxo-1-(4-nitro-benzyl)-pyrrolidin-3-ylidenemethyl]-1a,2,3,3a,4,6b-hexahydro-1H-2,6a-diaza-cyclobut[cd]indene-6-carboxylic acid sodium salt (1:1)]	8 µg/mL	2 µg/mL
CC(=O)N1C[C@H]2CC(/C=C3\CCN(Cc4cccs4)C3=O)=C(C(=O)O)N3C(=O)[C@@H]1[C@@H]23 [Example 27, (E)-(1aS,3aR,6bR)-2-Acetyl-1-oxo-5-[2-oxo-1-(thiophen-2-ylmethyl)-pyrrolidin-3-ylidenemethyl]-1a,2,3,3a,4,6b-hexahydro-1H-2,6a-diaza-cyclobut[cd]indene-6-carboxylic acid sodium salt (1:1)]	4 µg/mL	2 µg/mL
CC(=O)N1C[C@H]2CC(/C=C3\CCN(CC(C)C)C3=O)=C(C(=O)O)N3C(=O)[C@@H]1[C@@H]23 [Example 28, (E)-(1aS,3aR,6bR)-2-Acetyl-1-oxo-5-[2-oxo-1-isobutyl-pyrrolidin-3-ylidenemethyl]-1a,2,3,3a,4,6b-hexahydro-1H-2,6a-diaza-cyclobut[cd]indene-6-carboxylic acid sodium salt (1:1)]	2 µg/mL	8 µg/mL
CC(=O)N1C[C@H]2CC(/C=C3\CCN(C4CC4)C3=O)=C(C(=O)O)N3C(=O)[C@@H]1[C@@H]23 [Example 29, (E)-(1aS,3aR,6bR)-2-Acetyl-1-oxo-5-[1-cyclopropyl-2-oxo-pyrrolidin-3-ylidenemethyl]-1a,2,3,3a,4,6b-hexahydro-1H-2,6a-diaza-cyclobut[cd]indene-6-carboxylic acid sodium salt (1:1)]	1 µg/mL	16 µg/mL
CC(=O)N1C[C@H]2CC(/C=C3\CCN(c4cccc([N+](=O)[O-])c4)C3=O)=C(C(=O)O)N3C(=O)[C@@H]1[C@@H]23 [Example 30, (E)-(1aS,3aR,6bR)-2-Acetyl-1-oxo-5-[1-(3-nitrophenyl)-2-oxo-pyrrolidin-3-ylidenemethyl]-1a,2,3,3a,4,6b-hexahydro-1H-2,6a-diaza-cyclobut[cd]indene-6-carboxylic acid sodium salt (1:1)]	4 µg/mL	1 µg/mL
CC(=O)N1C[C@H]2CC(/C=C3\CCN(c4ccccc4)C3=O)=C(C(=O)O)N3C(=O)[C@@H]1[C@@H]23 [Example 31, (E)-(1aS,3aR,6bR)-2-Acetyl-1-oxo-5-[2-oxo-1-phenyl-pyrrolidin-3-ylidenemethyl]-1a,2,3,3a,4,6b-hexahydro-1H-2,6a-diaza-cyclobut[cd]indene-6-carboxylic acid sodium salt (1:1)]	8 µg/mL	2 µg/mL
CCOC(=O)N1CCC(N2CC/C(=C\C3=C(C(=O)O)N4C(=O)[C@@H]5[C@H]4[C@H](C3)CN5C(C)=O)C2=O)CC1 [Example 32, (E)-(1aS,3aR,6bR)-2-Acetyl-1-oxo-5-[1-(1-ethoxycarbonyl-piperidin-4-yl)-2-oxo-pyrrolidin-3-ylidenemethyl]-1a,2,3,3a,4,6b-hexahydro-1H-2,6a-diaza-cyclobut[cd]indene-6-carboxylic acid sodium salt (1:1)]	62 µg/mL	8 µg/mL
CC(=O)N1C[C@H]2CC(/C=C3\CCN(c4cccnc4)C3=O)=C(C(=O)O)N3C(=O)[C@@H]1[C@@H]23 [Example 33, (E)-(1aS,3aR,6bR)-2-Acetyl-1-oxo-5-[2-oxo-1-pyridin-3-yl-pyrrolidin-3-ylidenemethyl]-1a,2,3,3a,4,6b-hexahydro-1H-2,6a-diaza-cyclobut[cd]indene-6-carboxylic acid sodium salt (1:1)]	1 µg/mL	2 µg/mL
O=C(O)C1=C(/C=C2\CCN(c3cccc([N+](=O)[O-])c3)C2=O)C[C@@H]2CN(C(=O)C(F)(F)F)[C@@H]3C(=O)N1[C@H]23 [Example 34, (E)-(1aS,3aR,6bR)-1-Oxo-5-[2-oxo-1-(3-nitro-phenyl)-pyrrolidin-3-ylidenemethyl]-2-trifluoroacetyl-1a,2,3,3a,4,6b-hexahydro-1H-2,6a-diaza-cyclobut[cd]indene-6-carboxylic acid sodium salt (1:1)]	8 µg/mL	4 µg/mL
O=C(O)C1=C(/C=C2\CCN(Cc3cccs3)C2=O)C[C@@H]2CN(C(=O)C(F)(F)F)[C@@H]3C(=O)N1[C@H]23 [Example 35, (E)-(1aS,3aR,6bR)-1-Oxo-5-[2-oxo-1-(thiophen-2-yl-methyl)-pyrrolidin-3-ylidenemethyl]-2-trifluoroacetyl-1a,2,3,3a,4,6b-hexahydro-1H-2,6a-diaza-cyclobut[cd]indene-6-carboxylic acid sodium salt (1:1)]	32 µg/mL	4 µg/mL
O=C(O)C1=C(/C=C2\CCN(C3CC3)C2=O)C[C@@H]2CN(C(=O)C(F)(F)F)[C@@H]3C(=O)N1[C@H]23 [Example 36, (E)-(1aS,3aR,6bR)-1-Oxo-5-[2-oxo-1-cyclopropyl-pyrrolidin-3-ylidenemethyl]-2-trifluoroacetyl-1a,2,3,3a,4,6b-hexahydro-1H-2,6a-diaza-cyclobut[cd]indene-6-carboxylic acid sodium salt (1:1)]	8 µg/mL	4 µg/mL
O=C(O)C1=C(/C=C2\CCN(c3ccccc3)C2=O)C[C@@H]2CN(C(=O)C(F)(F)F)[C@@H]3C(=O)N1[C@H]23 [Example 37, (E)-(1aS,3aR,6bR)-1-Oxo-5-[2-oxo-1-phenyl-pyrrolidin-3-ylidenemethyl]-2-trifluoroacetyl-1a,2,3,3a,4,6b-hexahydro-1H-2,6a-diaza-cyclobut[cd]indene-6-carboxylic acid sodium salt (1:1)]	64 µg/mL	4 µg/mL
O=C(O)C1=C(/C=C2\CCN(c3cccnc3)C2=O)C[C@@H]2CN(C(=O)C(F)(F)F)[C@@H]3C(=O)N1[C@H]23 [Example 38, (E)-(1aS,3aR,6bR)-1-Oxo-5-[2-oxo-1-pyridin-3-yl-pyrrolidin-3-ylidenemethyl]-2-trifluoroacetyl-1a,2,3,3a,4,6b-hexahydro-1H-2,6a-diaza-cyclobut[cd]indene-6-carboxylic acid sodium salt (1:1)]	16 µg/mL	4 µg/mL
CC(=O)N1C[C@H]2CC(/C=C3\CCN(c4ccc[n+](Cc5ccccc5)c4)C3=O)=C(C(=O)[O-])N3C(=O)[C@@H]1[C@@H]23 [Example 39, (E)-(1aS,3aR,6bR)-2-Acetyl-5-[1-(1-benzyl-pyridin-1-ium-3-yl)-2-oxo-pyrrolidin-3-ylidenemethyl]-1-oxo-1a,2,3,3a,4,6b-hexahydro-1H-2,6a-diaza-cyclobut[cd]indene-6-carboxylate acid]	4 µg/mL (≈ 8.02 µM)	2 µg/mL (≈ 4.01 µM)
CC(=O)N1C[C@H]2CC(/C=C3\CCN(c4ccc[n+](CC(N)=O)c4)C3=O)=C(C(=O)[O-])N3C(=O)[C@@H]1[C@@H]23 [Example 40, (E)-(1aS,3aR,6bR)-2-Acetyl-5-[1-(1-carbamoylmethyl-pyridin-1-ium-3-yl)-2-oxo-pyrrolidin-3-ylidenemethyl]-1-oxo-1a,2,3,3a,4,6b-hexahydro-1H-2,6a-diaza-cyclobut[cd]indene-6-carboxylate]	4 µg/mL (≈ 8.59 µM)	2 µg/mL (≈ 4.3 µM)
